Legend:
[1] = Assay 2. Stability in Simulated Intestinal Fluid (SIF); type: in vitro ADME; conditions: 1 μM, 37° C., SIF pH 6.7 with pancreatin
In short: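 Degradation rate measured by LC/MS after acetonitrile quench of timed aliquots, starting at T0. Test compound 1 μM in simulated intestinal fluid (pH 6.7 phosphate buffer, FaSSIF powder, pancreatin), shaken at 37 °C.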

[2] = Assay 1. Stability in Simulated Gastric Fluid (SGF); type: in vitro ADME; conditions: 1 μM, 37° C., SGF pH 1.6 with pepsin
In short: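 Simulated gastric fluid, prepared fresh as NaCl buffer at pH 1.6 with 0.1 mg/mL pepsin and FaSSIF powder, received test compound to 1 μM final and was held at 37 °C. LC/MS of acetonitrile-quenched samples, taken immediately and then periodically, gave degradation rates.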

Row | SMILES | Assay 2 (SIF) (% @ Remaining 4 hours) [1] | Assay 1 (SGF) (% Remaining @ 1 hours) [2]
1 | CC(=O)Oc1ccc(-c2oc3cc(OC(C)=O)cc(OC(C)=O)c3c(=O)c2OC(C)=O)cc1 [Compound 20, [4-(3,5,7-triacetoxy-4-oxo-chromen-2-yl)phenyl] acetate] | A (A: <25% of the tested compound remaining) | C (C: >75% of the tested compound remaining)
2 | CCC(=O)OCC[C@@H](C)OC(=O)Oc1ccc(/C=C/c2cc(OC(=O)O[C@H](C)CCOC(=O)CC)cc(OC(=O)O[C@H](C)CCOC(=O)CC)c2)cc1 [Compound 76, (3R,3′R)-((((5-((E)-4-(((((R)-4-(propionyloxy)butan-2-yl)oxy)carbonyl)oxy)styryl)-1,3-phenylene)bis(oxy))bis(carbonyl))bis(oxy))bis(butane-3,1-diyl) dipropionate] | A (A: <25% of the tested compound remaining) | B (B: 25-75% of the tested compound remaining)
3 | O=C(CCc1c[nH]c2ccccc12)Oc1cc(C(=O)O)cc(OC(=O)CCc2c[nH]c3ccccc23)c1OC(=O)CCc1c[nH]c2ccccc12 [Compound 240, 3,4,5-tris({[3-(1H-indol-3-yl)propanoyl]oxy})benzoic Acid] | C (C: >75% of the tested compound remaining) | A (A: <25% of the tested compound remaining)
4 | CCCC(=O)OC[C@@H](OC(=O)CCC)[C@@H](OC(=O)CCC)[C@H](OC(=O)CCC)[C@@H](OC(=O)CCC)C(=O)Oc1ccc(/C=C/c2cc(OC(=O)[C@H](OC(=O)CCC)[C@@H](OC(=O)CCC)[C@H](OC(=O)CCC)[C@@H](COC(=O)CCC)OC(=O)CCC)cc(OC(=O)[C@H](OC(=O)CCC)[C@@H](OC(=O)CCC)[C@H](OC(=O)CCC)[C@@H](COC(=O)CCC)OC(=O)CCC)c2)cc1 [Compound 19, [4-[(E)-2-[3,5-bis[[(2R,3S,4R,5R)-2,3,4,5,6-penta(butanoyloxy)hexanoyl]oxy]phenyl]vinyl]phenyl] (2R,3S,4R,5R)-2,3,4,5,6-penta(butanoyloxy)hexanoate] | B (B: 25-75% of the tested compound remaining) | B (B: 25-75% of the tested compound remaining)
5 | CCCC(=O)Nc1ccc(O)c(C(=O)O)c1 [Compound 40, 5-(butanoylamino)-2-hydroxy-benzoic Acid] | C (C: >75% of the tested compound remaining) | C (C: >75% of the tested compound remaining)
6 | CCCC(=O)Oc1ccc([C@@H]2CC(=O)c3c(OC(=O)CCC)cc(OC(=O)CCC)cc3O2)cc1 [Compound 22, (S)-2-(4-(butyryloxy)phenyl)-4-oxochromane-5,7-diyl dibutyrate] | A (A: <25% of the tested compound remaining) | B (B: 25-75% of the tested compound remaining)
7 | CC(=O)OCC[C@@H](C)OC(=O)Oc1ccc(/C=C/c2cc(OC(=O)O[C@H](C)CCOC(C)=O)cc(OC(=O)O[C@H](C)CCOC(C)=O)c2)cc1 [Compound 24, [(3R)-3-[4-[(E)-2-[3,5-bis[[(1R)-3-acetoxy-1-methyl-propoxy]carbonyloxy]phenyl]vinyl]phenoxy]carbonyloxybutyl] acetate] | A (A: <25% of the tested compound remaining) | C (C: >75% of the tested compound remaining)
8 | CCCC(=O)O[C@H](C)CCOC(=O)Oc1ccc(/C=C/c2cc(OC(=O)OCC[C@@H](C)OC(=O)CCC)cc(OC(=O)OCC[C@@H](C)OC(=O)CCC)c2)cc1 [Compound 75, (2R,2′R)-((((5-((E)-4-((((R)-3-(butyryloxy)butoxy)carbonyl)oxy)styryl)-1,3-phenylene)bis(oxy))bis(carbonyl))bis(oxy))bis(butane-4,2-diyl) dibutyrate] | B (B: 25-75% of the tested compound remaining) | C (C: >75% of the tested compound remaining)
9 | CCC(=O)Oc1ccc2c(c1)oc(=O)c1cc(OC(=O)CC)c(OC(=O)CC)cc12 [Compound 242, [6-oxo-8,9-di(propanoyloxy)benzo[c]chromen-3-yl] propanoate] | A (A: <25% of the tested compound remaining) | C (C: >75% of the tested compound remaining)
10 | Cc1c(C)c2c(c(C)c1OC(=O)C1OCC[C@@H](C)O1)CC[C@@](C)(CCC[C@H](C)CCC[C@H](C)CCCC(C)C)O2 (stereo partly drawn) [Compound 66, [(2R)-2,5,7,8-tetramethyl-2-[(4R,8R)-4,8,12-trimethyltridecyl]chroman-6-yl] (4R)-4-methyl-1,3-dioxane-2-carboxylate] | A (A: <25% of the tested compound remaining) | C (C: >75% of the tested compound remaining)
11 | CCCC(=O)Oc1cc(OC(=O)CCC)c2c(=O)cc(-c3ccc(OC(=O)CCC)c(OC(=O)CCC)c3)oc2c1 [Compound 202, 2-[3,4-bis(butanoyloxy)phenyl]-5-(butanoyloxy)-4-oxo-4H-chromen-7-yl Butanoate] | A (A: <25% of the tested compound remaining) | C (C: >75% of the tested compound remaining)
12 | CCCC(=O)Oc1ccc(N)cc1C(=O)O.Cl [Compound 31, 5-amino-2-butanoyloxy-benzoic Acid Hydrochloride] | C (C: >75% of the tested compound remaining) | C (C: >75% of the tested compound remaining)
13 | C=C1CC[C@H](OC(=O)C2(C)OCC[C@@H](C)O2)C/C1=C/C=C1\CCC[C@]2(C)[C@@H]([C@H](C)CCCC(C)C)CC[C@@H]12 (stereo partly drawn) [Compound 70, [(1 S,3Z)-3-[(2E)-2-[(1R,3aS,7aR)-1-[(1R)-1,5-dimethylhexyl]-7a-methyl-2,3,3a,5,6,7-hexahydro-1H-inden-4-ylidene]ethylidene]-4-methylene-cyclohexyl] (4R)-2,4-dimethyl-1,3-dioxane-2-carboxylate] | C (C: >75% of the tested compound remaining) | B (B: 25-75% of the tested compound remaining)
14 | O=C(CCc1c[nH]c2ccccc12)O[C@H]1OC[C@@H](OC(=O)CCc2c[nH]c3ccccc23)[C@@H](OC(=O)CCc2c[nH]c3ccccc23)[C@H]1OC(=O)CCc1c[nH]c2ccccc12 [Compound 182, (2R,3R,4R,5R)-3,4,5-tris({[3-(1H-indol-3-yl)propanoyl]oxy})oxan-2-yl 3-(1H-indol-3-yl)propanoate] | A (A: <25% of the tested compound remaining) | C (C: >75% of the tested compound remaining)
15 | CC(=O)Oc1ccc(/C=C/c2cc(OC(C)=O)cc(OC(C)=O)c2)cc1 [Compound 18, [4-[(E)-2-(3,5-diacetoxyphenyl)vinyl]phenyl] acetate] | C (C: >75% of the tested compound remaining) | C (C: >75% of the tested compound remaining)
16 | CC(=O)Oc1cc(C(=O)O)cc(OC(C)=O)c1OC(C)=O [Compound 44, 3,4,5-triacetoxybenzoic Acid] | B (B: 25-75% of the tested compound remaining) | C (C: >75% of the tested compound remaining)
17 | CCCC(=O)O[C@H](C)CC(=O)Oc1ccc(/C=C/c2cc(OC(=O)C[C@@H](C)OC(=O)CCC)cc(OC(=O)C[C@@H](C)OC(=O)CCC)c2)cc1 [Compound 13, [4-[(E)-2-[3,5-bis[[(3R)-3-butanoyloxybutanoyl]oxy]phenyl]vinyl]phenyl] (3R)-3-butanoyloxy-butanoate] | B (B: 25-75% of the tested compound remaining) | C (C: >75% of the tested compound remaining)
18 | CCC(=O)OC1O[C@@H](C)[C@@H](OC(=O)CC)[C@@H](OC(=O)CC)[C@@H]1OC(=O)CC (stereo partly drawn) [Compound 157, (3S,4R,5R,6S)-6-methyl-3,4,5-tris(propanoyloxy)oxan-2-yl Propanoate] | A (A: <25% of the tested compound remaining) | C (C: >75% of the tested compound remaining)
19 | CCC(=O)O[C@@H]1[C@@H](OC(=O)CC)[C@@H](OC(=O)CC)CO[C@H]1O [Compound 159, (3S,4S,5R,6R)-6-hydroxy-4,5-bis(propanoyloxy)oxan-3-yl Propanoate] | B (B: 25-75% of the tested compound remaining) | C (C: >75% of the tested compound remaining)
20 | C[C@@H]1O[C@H](OC(=O)CCc2c[nH]c3ccccc23)[C@@H](OC(=O)CCc2c[nH]c3ccccc23)[C@H](OC(=O)CCc2c[nH]c3ccccc23)[C@@H]1OC(=O)CCc1c[nH]c2ccccc12 [Compound 103, (2R,3S,4R,5R,6S)-3,4,5-tris({[3-(1H-indol-3-yl)propanoyl]oxy})-6-methyloxan-2-yl 3-(1H-indol-3-yl)propanoate] | A (A: <25% of the tested compound remaining) | B (B: 25-75% of the tested compound remaining)
21 | CCC(=O)O[C@@H]1[C@H](OC(=O)CC)[C@H](C)OC(O)[C@H]1OC(=O)CC (stereo partly drawn) [Compound 156, (3S,4R,5R,6S)-2-hydroxy-6-methyl-4,5-bis(propanoyloxy)oxan-3-yl Propanoate] | A (A: <25% of the tested compound remaining) | C (C: >75% of the tested compound remaining)
